Laboratory results taken from patent publication US10597388B2, “Pyridazinone herbicides” (FMC CORPORATION, priority 2014, dated 2020).

What was measured:
Experiment in all cases: Test D controlled growth environment herbicide test, pre- and postemergence
Format in all cases: in vivo
[1] = test system: Russian thistle (Salsola kali)
Procedure, shortened: (§1)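 Rating is visual, 0–100 scale (100 = complete control), made against untreated plants 14–21 d after treatment in controlled growth conditions. Postemergence sprays went onto 1- to 4-leaf plants in peat medium; preemergence sprays onto silt loam after sowing; formulation included a surfactant.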

[2] = test system: barley, spring (spring barley, Hordeum vulgare)
Procedure, shortened: as §1

[3] = test system: buckwheat, wild (wild buckwheat, Polygonum convolvulus)
Procedure, shortened: as §1

[4] = test system: canarygrass (Phalaris minor)
Procedure, shortened: as §1

[5] = test system: chickweed (common chickweed, Stellaria media)
Procedure, shortened: as §1

[6] = test system: field violet (Viola arvensis)
Procedure, shortened: as §1

[7] = test system: galium (catchweed bedstraw, Galium aparine)
Procedure, shortened: as §1

kochia (Kochia scoparia) = test system: kochia (Kochia scoparia)
Procedure, shortened: as §1

[8] = test system: oat, wild (wild oat, Avena fatua)
Procedure, shortened: as §1

[9] = test system: oilseed rape (Brassica napus)
Procedure, shortened: as §1

[10] = test system: pigweed (Amaranthus retroflexus)
Procedure, shortened: as §1

[11] = test system: wheat, spring (spring wheat, Triticum aestivum)
Procedure, shortened: as §1

[12] = test system: wheat, winter (winter wheat, Triticum aestivum)
Procedure, shortened: as §1

[13] = Postemergence, 31 g ai/ha, scale 0 to 100 (0 no effect, 100 complete control)
[14] = Postemergence, 125 g ai/ha, visual rating on scale 0 (no effect) to 100 (complete control), 14 to 21 d
[15] = Postemergence, 250 g ai/ha, scale 0 to 100 (0 no effect, 100 complete control)
[16] = Preemergence, 62 g ai/ha, scale 0 to 100 (0 no effect, 100 complete control)
[17] = Preemergence, 125 g ai/ha, scale 0 to 100 (0 no effect, 100 complete control)
[18] = Preemergence, 250 g ai/ha, scale 0 to 100, 0 no effect, 100 complete control
[19] = postemergence, 62 g ai/ha, scale 0 to 100, 0 no effect, 100 complete control

With `Cc1cc2ccccc2c(-c2c(O)c(C)nn(C)c2=O)c1C` [Compound 34] the “Russian Thistle plant response rating” value [1, 13] was 70, the “Plant response rating, Russian Thistle” value [1, 14] was 80 and the “Plant response rating, Russian Thistle” value [1, 15] was 85. For the same compound, the “Plant response rating (scale of 0 to 100), Russian Thistle” value ([1]; Preemergence, 31 g ai/ha) was 0, the “Plant response rating, Russian Thistle” value [1, 16] was 0 and the “Plant response rating, Russian Thistle” value [1, 17] was 10. The “Plant response rating, Russian Thistle” value [1, 18] was 15, the “Plant response rating, Russian Thistle” value [1, 19] was 80 and the “Plant response rating, Barley, Spring” value [2, 13] was 0. The “Plant response rating, Barley, Spring” value [2, 14] was 0, the “Plant response rating, Barley, Spring” value [2, 15] was 5 and the “Plant response rating (scale of 0 to 100), Barley, Spring” value ([2]; Preemergence, 31 g ai/ha) was 0. The “Plant response rating, Barley, Spring” value [2, 16] was 0, the “Plant response rating, Barley, Spring” value [2, 17] was 0 and the “Barley, Spring plant response rating” value [2, 18] was 20. The “Plant response rating, Barley, Spring” value [2, 19] was 0, the “Buckwheat, Wild plant response rating” value [3, 13] was 100 and the “Plant response rating, Buckwheat, Wild” value [3, 14] was 100. For the same compound, the “Plant response rating, Buckwheat, Wild” value [3, 15] was 100, the “Plant response rating (scale of 0 to 100), Buckwheat, Wild” value ([3]; Preemergence, 31 g ai/ha) was 0 and the “Plant response rating, Buckwheat, Wild” value [3, 16] was 10. The “Plant response rating, Buckwheat, Wild” value [3, 17] was 0, the “Plant response rating, Buckwheat, Wild” value [3, 18] was 0 and the “Plant response rating, Buckwheat, Wild” value [3, 19] was 100. The “Canarygrass plant response rating” value [4, 13] was 30, the “Plant response rating, Canarygrass” value [4, 14] was 75 and the “Plant response rating, Canarygrass” value [4, 15] was 85. For the same compound, the “Plant response rating (scale of 0 to 100), Canarygrass” value ([4]; Preemergence, 31 g ai/ha) was 20, the “Plant response rating, Canarygrass” value [4, 16] was 50 and the “Plant response rating, Canarygrass” value [4, 17] was 90. For the same compound, the “Plant response rating, Canarygrass” value [4, 18] was 95, the “Plant response rating, Canarygrass” value [4, 19] was 65 and the “Chickweed plant response rating” value [5, 13] was 95. For the same compound, the “Plant response rating, Chickweed” value [5, 14] was 100, the “Plant response rating, Chickweed” value [5, 15] was 100 and the “Plant response rating (scale of 0 to 100), Chickweed” value ([5]; Preemergence, 31 g ai/ha) was 85. For the same compound, the “Plant response rating, Chickweed” value [5, 16] was 95, the “Plant response rating, Chickweed” value [5, 17] was 100 and the “Plant response rating, Chickweed” value [5, 18] was 100. For the same compound, the “Plant response rating, Chickweed” value [5, 19] was 100, the “Field Violet plant response rating” value [6, 13] was 75 and the “Plant response rating, Field Violet” value [6, 14] was 95. The “Plant response rating, Field Violet” value [6, 15] was 95, the “Plant response rating (scale of 0 to 100), Field Violet” value ([6]; Preemergence, 31 g ai/ha) was 15 and the “Plant response rating, Field Violet” value [6, 16] was 25. For the same compound, the “Plant response rating, Field Violet” value [6, 17] was 75, the “Plant response rating, Field Violet” value [6, 18] was 95 and the “Plant response rating, Field Violet” value [6, 19] was 100. The “Galium plant response rating” value [7, 13] was 95, the “Plant response rating, Galium” value [7, 14] was 100 and the “Plant response rating, Galium” value [7, 15] was 100. For the same compound, the “Plant response rating (scale of 0 to 100), Galium” value ([7]; Preemergence, 31 g ai/ha) was 0, the “Plant response rating, Galium” value [7, 16] was 35 and the “Plant response rating, Galium” value [7, 17] was 80. For the same compound, the “Plant response rating, Galium” value [7, 18] was 85, the “Plant response rating, Galium” value [7, 19] was 100 and the “Kochia plant response rating” value (kochia (Kochia scoparia); [13]) was 60. For the same compound, the “Plant response rating, Kochia” value (kochia (Kochia scoparia); [14]) was 85, the “Plant response rating, Kochia” value (kochia (Kochia scoparia); [15]) was 95 and the “Plant response rating (scale of 0 to 100), Kochia” value (kochia (Kochia scoparia); Preemergence, 31 g ai/ha) was 25. The “Plant response rating, Kochia” value (kochia (Kochia scoparia); [16]) was 10, the “Plant response rating, Kochia” value (kochia (Kochia scoparia); [17]) was 15 and the “Plant response rating, Kochia” value (kochia (Kochia scoparia); [18]) was 50. For the same compound, the “Plant response rating, Kochia” value (kochia (Kochia scoparia); [19]) was 85, the “Oat, Wild plant response rating” value [8, 13] was 75 and the “Plant response rating, Oat, Wild” value [8, 14] was 95. The “Plant response rating, Oat, Wild” value [8, 15] was 95, the “Plant response rating (scale of 0 to 100), Oat, Wild” value ([8]; Preemergence, 31 g ai/ha) was 70 and the “Plant response rating, Oat, Wild” value [8, 16] was 75. The “Plant response rating, Oat, Wild” value [8, 17] was 85, the “Plant response rating, Oat, Wild” value [8, 18] was 90 and the “Plant response rating, Oat, Wild” value [8, 19] was 85. The “Oilseed Rape plant response rating” value [9, 13] was 65, the “Plant response rating, Oilseed Rape” value [9, 14] was 75 and the “Plant response rating, Oilseed Rape” value [9, 15] was 90. For the same compound, the “Plant response rating (scale of 0 to 100), Oilseed Rape” value ([9]; Preemergence, 31 g ai/ha) was 10, the “Plant response rating, Oilseed Rape” value [9, 16] was 55 and the “Plant response rating, Oilseed Rape” value [9, 17] was 50. For the same compound, the “Plant response rating, Oilseed Rape” value [9, 18] was 85, the “Plant response rating, Oilseed Rape” value [9, 19] was 70 and the “Pigweed plant response rating” value [10, 13] was 100. The “Plant response rating, Pigweed” value [10, 14] was 100, the “Plant response rating, Pigweed” value [10, 15] was 100 and the “Plant response rating (scale of 0 to 100), Pigweed” value ([10]; Preemergence, 31 g ai/ha) was 50. For the same compound, the “Plant response rating, Pigweed” value [10, 16] was 95, the “Plant response rating, Pigweed” value [10, 17] was 100 and the “Plant response rating, Pigweed” value [10, 18] was 100. The “Plant response rating, Pigweed” value [10, 19] was 100, the “Wheat, Spring plant response rating” value [11, 13] was 0 and the “Plant response rating, Wheat, Spring” value [11, 14] was 15. The “Plant response rating, Wheat, Spring” value [11, 15] was 45, the “Plant response rating (scale of 0 to 100), Wheat, Spring” value ([11]; Preemergence, 31 g ai/ha) was 0 and the “Plant response rating, Wheat, Spring” value [11, 16] was 0. The “Plant response rating, Wheat, Spring” value [11, 17] was 25, the “Plant response rating, Wheat, Spring” value [11, 18] was 60 and the “Plant response rating, Wheat, Spring” value [11, 19] was 10. The “Wheat, Winter plant response rating” value [12, 13] was 5, the “Plant response rating, Wheat, Winter” value [12, 14] was 15 and the “Plant response rating, Wheat, Winter” value [12, 15] was 25. For the same compound, the “Plant response rating (scale of 0 to 100), Wheat, Winter” value ([12]; Preemergence, 31 g ai/ha) was 0, the “Plant response rating, Wheat, Winter” value [12, 16] was 0 and the “Plant response rating, Wheat, Winter” value [12, 17] was 25. The “Plant response rating, Wheat, Winter” value [12, 18] was 40 and the “Plant response rating, Wheat, Winter” value [12, 19] was 25.
